{
  "source": "patent US6727227B1",
  "about": "“Tetrapetide revealing geroprotective effect, pharmacological substance on its basis, and the method of its application” (Obschestvo S Ogranichennoi Otvetstven-Nostiju “Klinika …, priority 2002, dated 2004)",
  "key": {"[1]": {"system": "Drosophila melanogaster of LA strain", "assay": "Content of lipid peroxide oxidation products (conjugated hydro-peroxides), LA strain", "format": "in vivo", "method": "The impact produced by L-Ala-L-Glu-L-Asp-Gly tetrapeptide (SEQ ID NO: 1) on catalase activity, the content of the products of lipid peroxide oxidation (LPO), life span, and the ageing rate were studied in Drosophila melanogaster of LA strain.\nL-Ala-L-Glu-L-Asp-Gly tetrapeptide (SEQ ID NO: 1) was applied in the larvae of the 3rd age in dose 0.00001% of the culture medium weight, which constituted approximately 0.015 mg/100 ml. Catalase activity was estimated by generally accepted methods in the homogenates of adult 14 days old flies. The experiment was carried out with a subsequent repetition.\nRegression and dispersal analyses served as the basic technique of statistic processing. The authenticity of differences was confirmed by the method of minimal relevant diversity."}, "[2]": {"system": "gastric EC-cells", "assay": "Extra-pineal synthesis of melatonin: enteroendocrine and serotonin-positive cell density in stomach after epiphysectomy", "format": "in vivo, male Wistar rats", "conditions": "for NEND/1 mm^2 (density of entero-endocrine cells), Fundal / NEND/1 mm^2 (density of entero-endocrine cells), Pyloric / Nser/1 mm^2 (density of serotonin-positive cells), Pyloric: 0.5 μg subcutaneously 10 days", "method": "The research was carried out on male Wistar rats weighing 130-140 g. The total number of the animals (23) was divided into 5 groups. The 1st group (control) included intact animals. The animals of groups 2-5 underwent epiphysectomy (EE). In 3 weeks after the surgery (on the 21st day) the animals of the 2nd and 3rd groups were subcutaneously injected with sodium chloride in dose 0.5 ml for the next 10 days. The animals of groups 4 and 5 were administered with L-Ala-L-Glu-L-Asp-Gly tetrapeptide (SEQ ID NO: 1) in dose 0.5 μg according to the same scheme.\nSlaughtering of the animals and isolation of their organs were conducted from 10 a.m. to 12 noon by daylight with the use of Nembutal anaesthesia (50 mg/kg). The animals of groups 1, 2 and 4 were slaughtered in 3 days upon the final drug administration (on the 33rd day after the operation and the onset of the experiment), while the animals of groups 3 and 5-in 12 days (on the 42nd day after epiphysectomy). Examined were the main organs of the diffuse neuroendocrine system (DNES): stomach, thyroid gland, and pancreas.\nThe surgery—epiphysectomy—was conducted under ether anaesthesia according to the devised technique. A 1-1.5 cm long incision was made along the central line of the head. Upon the uncovering of the scull cap an aperture was drilled over the sinus confluence point by means of a hollow 0.5 cm-diameter auger, which was manufactured of a metal tube especially for the experiment. The epiphysis was extracted by means of ophthalmic forceps through the opening in the cranium. The trepanation aperture was covered with an osteal fragment. The skin incision was sewn with silk threads.\nFragments of the extracted organs were fixed for 24 hours in Buen sour liquid for optic microscopy and according to Karnovsky for electron microscopy. Material dehydration and filling it in with paraffin for optic microscopy, as well as epone mixture for ultra-structural examination were prepared according to generally accepted techniques. Paraffin sections (7 μm) were placed on a microscope slide covered with a poly-L-lysine film (Sigma). Ultra-thin sections (100 nm) prepared on LKB-7A microtome (LKB) were contrasted with uranyl acetate and plumbum citrate.\nHistological and immunohistochemical examinations were carried out with a Jenamed-2 microscope (Zeiss). Electron-microscopic examination was conducted with a electronic JEM-100S microscope (JEOL).\nFor staining hematoxyline-eosin was applied. The total population of APUD-cytes in the pyloric and fundal stomach sections was determined according to Grimelius' histochemical silvering method (25).\nImmunohistochemical exposure of enterochromophine-cells (EC-cells) was conducted by applying uniclonic antibodies of mice to serotonin (Dako, 1:15 titre). The uniclonic antibodies were identified according to avidin-biotin-peroxidase (ABP) method (Vectastain kit) in order to measure immune serum globulins of mice.\nThe quantitative studies were carried out by means of computer analysis system of microscopic imprints (Imstar) with the use of Morphostar and Colquant (Imstar) applied licensed computer programmes, in accordance with the basic principles of stereology and morphometry (26).\nThe quantitative density of enteroendocrine (END) (NEND/1 mm^2) and serotonin-positive cells (Nser/1 mm^2) was estimated in 10 visual fields. The test area (S) constituted 5 mm^2.\nFor the statistical processing of the acquired data the non-parametric U-criterion by Mann/Whitney was applied."}, "[3]": {"system": "Drosophila melanogaster of HEM strain", "assay": "Reproductive function: share of live and fertile cultures, HEM strain", "format": "in vivo", "set-up": "key to Share of cultures, Live: % of initial test tubes containing live females; key to Share of cultures, Fertile: % of live cultures in which posterity was given", "conditions": "for Share of cultures, Fertile / Share of cultures, Live: 0.00001% of medium weight", "method": "Influence of L-Ala-L-Glu-L-Asp-Gly tetrapeptide (SEQ ID NO: 1) upon Drosophila melanogaster was tested at the stage of larvae of the 2nd-3rd age, by means of adding the preparation to culture medium in dose 0.00001% of the medium weight, which approximately made 0.015 mg/100 ml. The flies, hatched on the 1st day, were placed into test tubes, 5 couples in each, and transferred to fresh medium every 3 to 6 days.\nThere have been considered the following factors:\nThe share of the test tubes (of their initial amount), which contained live females (in Table 3—the share of live cultures).\nThe share of the test tubes (of the number of live cultures), in which posterity was given (in Table 3—the share of fertile cultures).\nIn each experimental variant 75 parental couples were analysed. The distinctions between fertility indices were defined by means of Fischer exact criterion for 2×2-adjustment tables (24)."}, "[4]": {"conditions": "epiphysectomised rats, 3rd day upon the end of drug administration"}, "[5]": {"conditions": "epiphysectomised rats, 12th day upon the end of drug administration"}},
  "note": "Marks after values point to notes of the source that are not given here. Residues, ends and D or L forms follow the SMILES beside them.",
  "data": [
    {"compound": "C[C@H](N)C(=O)N[C@@H](CCC(=O)O)C(=O)N[C@@H](CC(=O)O)C(=O)NCC(=O)O", "note": "[L-Ala-L-Glu-L-Asp-Gly tetrapeptide, L-alanyl-L-glutamyl-L-aspartyl-glycine] (H-AEDG-OH)", "values": [
      {"measurement": "Content of conjugated hydro-peroxides", "setting": "[1]; females", "value": "1.290* nmole/g of tissue"},
      {"measurement": "Content of conjugated hydro-peroxides", "setting": "[1]; males", "value": "1.202 nmole/g of tissue"},
      {"measurement": "Extra-pineal synthesis of serotonin and melatonin in gastric EC-cells", "setting": "[2]; epiphysectomised rats", "value": "promotes the extra-pineal synthesis of serotonin and melatonin"},
      {"measurement": "NEND/1 mm^2 (density of entero-endocrine cells), Fundal", "setting": "[2]; [4]", "value": "64 ± 5 /1 mm^2"},
      {"measurement": "NEND/1 mm^2 (density of entero-endocrine cells), Pyloric", "setting": "[2]; [4]", "value": "21 ± 1 /1 mm^2"},
      {"measurement": "Nser/1 mm^2 (density of serotonin-positive cells), Pyloric", "setting": "[2]; [4]", "value": "26 ± 2 /1 mm^2"},
      {"measurement": "NEND/1 mm^2 (density of entero-endocrine cells), Fundal", "setting": "[2]; [5]", "value": "47 ± 9 /1 mm^2"},
      {"measurement": "NEND/1 mm^2 (density of entero-endocrine cells), Pyloric", "setting": "[2]; [5]", "value": "19 ± 1 /1 mm^2"},
      {"measurement": "Nser/1 mm^2 (density of serotonin-positive cells), Pyloric", "setting": "[2]; [5]", "value": "26 ± 3 /1 mm^2"},
      {"measurement": "Effect on the epiphysectomy impact on DNES cells", "setting": "[2]; within 3 days upon the end of administration, maintained for 12 days", "value": "complete suppression of the epiphysectomy impact"},
      {"measurement": "Coefficient A of lineal regression, fertile culture share on age (y = B + Ax)", "setting": "[3]; HEM strain", "value": "−2.5 ± 0.37"},
      {"measurement": "Coefficient A of lineal regression, live culture shares on age (y = B + Ax)", "setting": "[3]; HEM strain", "value": "−1.6 ± 0.17"},
      {"measurement": "Coefficient B of lineal regression, fertile culture share on age (y = B + Ax)", "setting": "[3]; HEM strain", "value": "115 ± 11.4"},
      {"measurement": "Coefficient B of lineal regression, live culture shares on age (y = B + Ax)", "setting": "[3]; HEM strain", "value": "137 ± 10.6"},
      {"measurement": "Maximal life span attained", "setting": "[3]; HEM strain", "value": 100, "unit": "days"},
      {"measurement": "“a”-coefficient of fertile-share regression, control higher than experimental variant", "setting": "[3]; HEM strain", "value": 1.8, "unit": "times"},
      {"measurement": "Average life span", "setting": "[3]; HEM strain, Table 6", "value": 54, "unit": "days"},
      {"measurement": "Share of live cultures decreases faster than in controls", "setting": "[3]; HEM strain, regression analysis", "value": 1.5, "unit": "times"},
      {"measurement": "Extension of the reproduction period", "setting": "[3]; HEM strain, versus control", "value": 1.5, "unit": "fold"},
      {"measurement": "Duration of the reproductive period", "setting": "[3]; HEM strain, 30 days for cultures not exposed", "value": 47, "unit": "days"},
      {"measurement": "Share of cultures, Fertile", "setting": "[3]; day 0, HEM strain", "value": "100 + 0.8"},
      {"measurement": "Share of cultures, Fertile", "setting": "[3]; day 6, HEM strain", "value": "100 + 0.8"},
      {"measurement": "Share of cultures, Fertile", "setting": "[3]; day 10, HEM strain", "value": "93 ± 6.9"},
      {"measurement": "Share of cultures, Fertile", "setting": "[3]; day 13, HEM strain", "value": "93 ± 6.9"},
      {"measurement": "Share of cultures, Fertile", "setting": "[3]; day 19, HEM strain", "value": "86 ± 9.4"},
      {"measurement": "Share of cultures, Fertile", "setting": "[3]; day 23, HEM strain", "value": "43 ± 13.2"},
      {"measurement": "Share of cultures, Fertile", "setting": "[3]; day 27, HEM strain", "value": "31 ± 12.9"},
      {"measurement": "Share of cultures, Live", "setting": "[3]; day 27, HEM strain", "value": "93 ± 6.9"},
      {"measurement": "Share of cultures, Fertile", "setting": "[3]; day 32, HEM strain", "value": "36 ± 14.5"},
      {"measurement": "Share of cultures, Live", "setting": "[3]; day 32, HEM strain", "value": "85 ± 10.0"},
      {"measurement": "Share of cultures, Fertile", "setting": "[3]; day 38, HEM strain", "value": "9 ± 8.7"},
      {"measurement": "Share of cultures, Live", "setting": "[3]; day 38, HEM strain", "value": "85 ± 10.0"},
      {"measurement": "Share of cultures, Fertile", "setting": "[3]; day 44, HEM strain", "value": "9 ± 8.7"},
      {"measurement": "Share of cultures, Live", "setting": "[3]; day 44, HEM strain", "value": "85 ± 10.0"},
      {"measurement": "Share of cultures, Fertile", "setting": "[3]; day 50, HEM strain", "value": "9 ± 8.7"},
      {"measurement": "Share of cultures, Live", "setting": "[3]; day 50, HEM strain", "value": "36 ± 12.8"},
      {"measurement": "Share of cultures, Fertile", "setting": "[3]; day 54, HEM strain", "value": "0 + 0.9"},
      {"measurement": "Share of cultures, Live", "setting": "[3]; day 54, HEM strain", "value": "36 ± 12.8"},
      {"measurement": "Share of cultures, Fertile", "setting": "[3]; day 60, HEM strain", "value": "0 + 0.9"},
      {"measurement": "Share of cultures, Live", "setting": "[3]; day 60, HEM strain", "value": "29 ± 12.1"},
      {"measurement": "Share of cultures, Fertile", "setting": "[3]; day 66, HEM strain", "value": "0 + 0.9"},
      {"measurement": "Share of cultures, Live", "setting": "[3]; day 66, HEM strain", "value": "29 ± 12.1"},
      {"measurement": "Share of cultures, Fertile", "setting": "[3]; day 69, HEM strain", "value": "0 + 0.9"},
      {"measurement": "Share of cultures, Live", "setting": "[3]; day 69, HEM strain", "value": "21 ± 10.9"},
      {"measurement": "Share of cultures, Fertile", "setting": "[3]; day 73, HEM strain", "value": "0 + 0.9"},
      {"measurement": "Share of cultures, Live", "setting": "[3]; day 73, HEM strain", "value": "7 ± 6.9"},
      {"measurement": "Share of cultures, Fertile", "setting": "[3]; day 76, HEM strain", "value": "0 + 0.9"},
      {"measurement": "Share of cultures, Live", "setting": "[3]; day 76, HEM strain", "value": "7 ± 6.9"},
      {"measurement": "Share of cultures, Fertile", "setting": "[3]; day 84, HEM strain", "value": "0 + 0.9"},
      {"measurement": "Share of cultures, Live", "setting": "[3]; day 84, HEM strain", "value": "7 ± 6.9"},
      {"measurement": "Share of cultures, Fertile", "setting": "[3]; day 87, HEM strain", "value": "0 + 0.9"},
      {"measurement": "Share of cultures, Live", "setting": "[3]; day 87, HEM strain", "value": "7 ± 6.9"},
      {"measurement": "Share of cultures, Fertile", "setting": "[3]; day 100, HEM strain", "value": "0 + 0.9"},
      {"measurement": "Share of cultures, Live", "setting": "[3]; day 100, HEM strain", "value": "0 + 0.8"}
    ]}
  ]
}
